According to US9937151B2, “Carbapenem antibacterials with gram-negative activity” (priority 2010, dated 2018):

System: G(−) bacterial strains
Assay: Dilution antimicrobial susceptibility tests (MIC, NCCLS agar dilution / broth dilution)
Type: cell-based, Gram-negative organisms
Conditions: unit assumed
In short: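 Agar dilution on Mueller-Hinton agar at 10^4 CFU/spot and broth dilution at 5×10^5 CFU/well, per NCCLS M7-A5. Streptococci tested on Mueller-Hinton agar with 5% sheep blood. MIC taken as minimum inhibitory concentration; ATCC control strains run alongside.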

[1] = strain #1 Acinetobacter calcoaceticus
[2] = strain #2 Acinetobacter baumannii, Cf-R, Ci-R
[3] = strain #3 Acinetobacter baumannii, Cf-R, Ci-R, Mp-I
[4] = strain #4 Acinetobacter baumannii, Cf-R, Imp-I, CBPase
[5] = strain #7 Enterobacter aerogenes
[6] = strain #8 Enterobacter cloacae, Cf-R, B+
[7] = strain #9 Enterobacter cloacae, Cf-R
[8] = strain #10 Escherichia coli, Ci-R
[9] = strain #11 Escherichia coli, Ci-R, AmpC
[10] = strain #15 Klebsiella pneumoniae
[11] = strain #16 Moraxella catarrhalis
[12] = strain #21 Providencia rettgeri
[13] = strain #22 Salmonella typhimurium
[14] = strain #25 Shigella dysenteriae
[15] = strain #28 Stenotrophomonas maltophilia
[16] = strain #29 Pseudomonas aeruginosa
[17] = strain #30 Pseudomonas aeruginosa
[18] = strain #31 Pseudomonas aeruginosa, Ofx-R
[19] = strain #32 Pseudomonas aeruginosa, Cf-R
[20] = strain #33 Pseudomonas aeruginosa, Ci-R
[21] = strain #34 Pseudomonas aeruginosa, Gen-R
[22] = strain #35 Pseudomonas aeruginosa, Ip-R
[23] = strain #36 Pseudomonas aeruginosa, Cf-R, Ci-R, Mp-R

Measured: MIC

C[C@@H](O)C1C(=O)N2C(C(=O)O)=C(CN3CC[C@@H](NC(=N)N)C3)[C@H](C)C12 (stereo partly drawn) [Compound 156]
1 µg/mL: [7] | strain #14 Klebsiella oxytoca | [10] | [13] | [14]
0.5 µg/mL: [1] | strain #5 Citrobacter diversus | strain #6 Citrobacter freundii | [6] | [8] | [9] | strain #12 Escherichia coli | strain #13 Escherichia coli | strain #20 Proteus mirabilis | strain #26 Shigella sonnei | strain #27 Shigella flexneri | [15]
≤ 0.008 µg/mL: [11]
4 µg/mL: [3] | strain #17 Morganella Morganii | strain #18 Morganella Morganii
2 µg/mL: [2] | [4] | [5] | strain #19 Proteus vulgaris | [12] | strain #23 Serratia marcescens | strain #24 Serratia marcescens

C[C@@H](O)C1C(=O)N2C(C(=O)O)=C(CN3CC[C@H](NC(=O)CNS(N)(=O)=O)C3)[C@H](C)C12 (stereo partly drawn) [Compound 163]
1 µg/mL: strain #6 Citrobacter freundii | [7] | strain #14 Klebsiella oxytoca | [10] | [12] | [14] | [15]
16 µg/mL: [4]
2 µg/mL: [1] | [5] | strain #23 Serratia marcescens | strain #24 Serratia marcescens
4 µg/mL: [2] | strain #19 Proteus vulgaris
8 µg/mL: [3] | strain #17 Morganella Morganii | strain #18 Morganella Morganii
≤ 0.008 µg/mL: [11]
0.5 µg/mL: strain #5 Citrobacter diversus | [6] | [8] | [9] | strain #12 Escherichia coli | strain #13 Escherichia coli | strain #20 Proteus mirabilis | [13] | strain #26 Shigella sonnei | strain #27 Shigella flexneri

C[C@@H](O)C1C(=O)N2C(C(=O)O)=C(CN3CCC(NC(=O)CNC(=N)N)C3)[C@H](C)C12 (stereo partly drawn) [Compound 167]
32 µg/mL: [1]
2 µg/mL: strain #6 Citrobacter freundii | [6] | [7] | strain #14 Klebsiella oxytoca | [10] | [11] | strain #20 Proteus mirabilis | [12] | [13] | strain #23 Serratia marcescens
> 32 µg/mL: [2] | [3] | [4]
16 µg/mL: [15]
4 µg/mL: [5] | strain #19 Proteus vulgaris | strain #24 Serratia marcescens
1 µg/mL: strain #5 Citrobacter diversus | [8] | [9] | strain #12 Escherichia coli | strain #13 Escherichia coli | [14] | strain #26 Shigella sonnei | strain #27 Shigella flexneri
8 µg/mL: strain #17 Morganella Morganii | strain #18 Morganella Morganii

C[C@@H](O)[C@H]1C(=O)N2C(C(=O)O)=C(CN3C[C@@H](O)[C@H](NC(=N)N)C3)[C@H](C)[C@H]12 [Compound 178]
0.25 µg/mL: strain #5 Citrobacter diversus | [6] | [8] | [9] | strain #27 Shigella flexneri
0.5 µg/mL: strain #6 Citrobacter freundii | [7] | strain #12 Escherichia coli | strain #13 Escherichia coli | strain #14 Klebsiella oxytoca | [10] | strain #20 Proteus mirabilis | [13] | [14] | strain #26 Shigella sonnei
0.13 µg/mL: [1] | [15]
16 µg/mL: [23]
≤ 0.008 µg/mL: [11]
2 µg/mL: strain #17 Morganella Morganii | strain #18 Morganella Morganii | strain #19 Proteus vulgaris | strain #24 Serratia marcescens | [17] | [19] | [20] | [21] | [22]
1 µg/mL: [2] | [3] | [4] | [5] | [12] | strain #23 Serratia marcescens | [16] | [18]

CC(O)C1C(=O)N2C(C(=O)O)=C(CN3CCC(C(=N)N)C3)C(C)C12 (stereo not drawn) [Compound 185a]
0.5 µg/mL: [2] | [5] | strain #19 Proteus vulgaris | [12] | strain #24 Serratia marcescens | [18]
1 µg/mL: [3] | [4] | strain #17 Morganella Morganii | strain #18 Morganella Morganii | [16] | [17] | [19] | [20] | [21]
0.063 µg/mL: [6] | [8] | [9] | strain #12 Escherichia coli | strain #27 Shigella flexneri | [15]
≤ 0.008 µg/mL: [11]
0.13 µg/mL: [1] | strain #5 Citrobacter diversus | strain #6 Citrobacter freundii | [7] | strain #13 Escherichia coli | strain #20 Proteus mirabilis | [13] | [14] | strain #26 Shigella sonnei
0.25 µg/mL: strain #14 Klebsiella oxytoca | [10] | strain #23 Serratia marcescens
8 µg/mL: [23]
2 µg/mL: [22]
